Data from patent publication US10377764B2, “Tricyclic heterocyclic compounds as phosphoinositide 3-kinase inhibitors” (Karus Therapeutics Limited, priority 2015, dated 2019).

Key:
PI3K-p110β = PI3K-p110β (Homo sapiens, UniProt P42338); experiment: Fold isoform selectivity from Ki determination, non-radiometric ADP-Glo assay (Proqinase); assay type: biochemical; settings: class I PI3K isoforms
From the text: (§1) Fold isoform selectivity inhibition against class I PI3K isoforms, as confirmed following Ki determination using the non-radiometric ADP-Glo™ assay (Promega, Madison, Wis., USA) at Proqinase GmbH is listed below.

PI3K-p110δ = PI3K-p110δ (Homo sapiens, UniProt O00329); experiment: as above; assay type: biochemical; settings: class I PI3K isoforms
From the text: as §1

[1] = Rodent pharmacokinetics: oral bioavailability and clearance, plasma; assay type: in vivo, mouse; settings: for clearance: male, CD1, mouse, iv
Description: The following protocol was used to determine oral bioavailability and clearance.
(§2) The results are shown below. • Species=male mouse; • Strain=CD1, • n=3 male mice per time point per route; • Terminal blood sampling at 8 time points (5 min, 10 min, 0.5 hr, 1 hr, 3 hr, 6 hr, 8 hr and, 24 hr); • Collection of plasma, bio-analysis and report of pharmacokinetic parameters.
Formulation: 10% DMSO, 15% Cremophor, 75% Saline
Dosing: 10 mg/kg P.O. and 5 mg/kg I.V.
as §2, with “parameters. • Formulation: 10% DMSO, 90 & saline” for “parameters.”

[2] = IV, 5 mg/kg, male CD1 mouse plasma, free base
[3] = PO, 10 mg/kg, male CD1 mouse plasma, free base

Sequence of PI3K-p110β (P42338 whole entry, canonical isoform): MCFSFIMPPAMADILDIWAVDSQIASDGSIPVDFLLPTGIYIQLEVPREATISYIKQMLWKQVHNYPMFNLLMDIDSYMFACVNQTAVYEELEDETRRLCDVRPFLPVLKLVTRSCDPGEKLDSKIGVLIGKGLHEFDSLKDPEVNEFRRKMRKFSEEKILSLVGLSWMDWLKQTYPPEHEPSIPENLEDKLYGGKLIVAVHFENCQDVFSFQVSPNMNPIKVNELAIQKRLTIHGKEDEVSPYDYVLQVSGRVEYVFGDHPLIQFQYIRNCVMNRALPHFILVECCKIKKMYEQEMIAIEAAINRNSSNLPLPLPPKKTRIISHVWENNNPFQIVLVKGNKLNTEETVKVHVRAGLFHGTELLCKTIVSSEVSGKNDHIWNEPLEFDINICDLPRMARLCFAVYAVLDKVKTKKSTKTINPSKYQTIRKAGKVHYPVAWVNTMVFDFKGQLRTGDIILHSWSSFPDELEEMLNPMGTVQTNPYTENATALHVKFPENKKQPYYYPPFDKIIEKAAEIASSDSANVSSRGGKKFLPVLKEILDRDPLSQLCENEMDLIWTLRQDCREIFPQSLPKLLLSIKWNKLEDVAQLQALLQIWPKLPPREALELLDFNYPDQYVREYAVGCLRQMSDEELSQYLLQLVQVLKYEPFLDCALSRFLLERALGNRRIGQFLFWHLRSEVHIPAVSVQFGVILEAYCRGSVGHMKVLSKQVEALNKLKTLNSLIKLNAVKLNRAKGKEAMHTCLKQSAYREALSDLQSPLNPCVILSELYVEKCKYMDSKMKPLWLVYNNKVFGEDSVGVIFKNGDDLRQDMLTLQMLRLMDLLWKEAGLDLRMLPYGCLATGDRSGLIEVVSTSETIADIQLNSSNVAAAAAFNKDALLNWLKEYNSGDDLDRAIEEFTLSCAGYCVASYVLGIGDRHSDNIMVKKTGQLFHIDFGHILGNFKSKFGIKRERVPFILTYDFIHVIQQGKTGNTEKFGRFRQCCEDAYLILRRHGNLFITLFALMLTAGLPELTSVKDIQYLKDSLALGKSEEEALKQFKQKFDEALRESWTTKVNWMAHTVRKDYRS
Sequence of PI3K-p110β (P27986 whole entry partner, canonical isoform): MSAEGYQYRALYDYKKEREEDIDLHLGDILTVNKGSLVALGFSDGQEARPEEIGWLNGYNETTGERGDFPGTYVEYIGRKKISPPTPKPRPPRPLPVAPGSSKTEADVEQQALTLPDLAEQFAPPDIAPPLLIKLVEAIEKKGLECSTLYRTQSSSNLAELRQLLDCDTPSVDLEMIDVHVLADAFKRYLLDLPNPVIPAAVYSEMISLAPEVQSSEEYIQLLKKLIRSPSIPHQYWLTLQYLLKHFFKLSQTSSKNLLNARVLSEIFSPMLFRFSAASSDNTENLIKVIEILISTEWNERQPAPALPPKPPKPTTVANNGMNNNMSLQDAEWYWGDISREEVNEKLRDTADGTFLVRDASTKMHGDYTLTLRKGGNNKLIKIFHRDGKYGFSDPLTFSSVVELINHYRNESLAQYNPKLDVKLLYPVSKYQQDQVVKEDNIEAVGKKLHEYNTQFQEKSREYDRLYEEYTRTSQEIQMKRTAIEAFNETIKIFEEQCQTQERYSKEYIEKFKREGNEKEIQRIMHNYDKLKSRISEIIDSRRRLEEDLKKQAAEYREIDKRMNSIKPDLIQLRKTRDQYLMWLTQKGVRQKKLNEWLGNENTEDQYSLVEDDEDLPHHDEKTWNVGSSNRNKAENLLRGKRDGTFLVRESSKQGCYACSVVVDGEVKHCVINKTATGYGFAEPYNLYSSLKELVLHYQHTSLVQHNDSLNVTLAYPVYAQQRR
Sequence of PI3K-p110δ (O00329 whole entry, canonical isoform): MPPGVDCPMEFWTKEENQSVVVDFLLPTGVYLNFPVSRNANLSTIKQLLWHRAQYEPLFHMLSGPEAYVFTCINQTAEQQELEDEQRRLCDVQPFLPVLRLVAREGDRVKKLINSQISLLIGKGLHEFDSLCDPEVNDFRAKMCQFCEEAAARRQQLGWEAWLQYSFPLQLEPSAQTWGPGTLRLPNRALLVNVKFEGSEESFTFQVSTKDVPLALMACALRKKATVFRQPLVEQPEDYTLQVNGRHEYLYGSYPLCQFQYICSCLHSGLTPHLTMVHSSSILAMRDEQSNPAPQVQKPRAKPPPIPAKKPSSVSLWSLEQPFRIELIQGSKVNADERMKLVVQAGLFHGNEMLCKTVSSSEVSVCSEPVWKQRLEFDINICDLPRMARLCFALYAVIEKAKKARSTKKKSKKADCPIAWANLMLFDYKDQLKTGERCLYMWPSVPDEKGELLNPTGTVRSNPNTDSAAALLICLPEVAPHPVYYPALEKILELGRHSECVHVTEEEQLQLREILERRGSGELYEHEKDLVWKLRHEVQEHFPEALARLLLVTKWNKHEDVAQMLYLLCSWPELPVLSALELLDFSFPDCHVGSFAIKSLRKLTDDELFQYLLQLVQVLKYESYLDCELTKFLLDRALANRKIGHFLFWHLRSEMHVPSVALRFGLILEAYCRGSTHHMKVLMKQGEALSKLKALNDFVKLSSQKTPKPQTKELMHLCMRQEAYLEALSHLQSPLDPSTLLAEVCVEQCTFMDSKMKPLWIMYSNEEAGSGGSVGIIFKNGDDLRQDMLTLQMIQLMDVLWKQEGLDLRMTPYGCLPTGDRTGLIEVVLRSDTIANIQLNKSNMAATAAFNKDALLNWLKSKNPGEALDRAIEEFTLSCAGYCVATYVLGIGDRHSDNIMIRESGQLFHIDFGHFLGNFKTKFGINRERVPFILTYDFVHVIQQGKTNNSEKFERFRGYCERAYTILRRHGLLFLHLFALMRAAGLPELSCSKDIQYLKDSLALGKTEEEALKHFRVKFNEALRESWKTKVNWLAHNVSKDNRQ
Sequence of PI3K-p110δ (P27986 whole entry partner, canonical isoform): as the sequence (P27986 whole entry partner, canonical isoform) above

| SMILES | FOLD Ki p110β/p110α (PI3K-p110β) | FOLD Ki p110δ/p110α (PI3K-p110δ) | other results |
| --- | --- | --- | --- |
| Fc1cc(-c2nc(N3CCOCC3)c3oc4ncc(CN5CCC6(CC5)COC6)cc4c3n2)c2cc[nH]c2c1 [Example B, 4-(6-Fluoro-1H-indol-4-yl)-6-(morpholin-4-yl)-12-{2-oxa-7-azaspiro[3.5]nonan-7-ylmethyl}-8-oxa-3,5,10-triazatricyclo[7.4.0.0^2,7]trideca-1(13),2(7),3,5,9,11-hexaene] | ** (** ≥10x < 50x) | *** (*** ≥50x < 100x) |  |
| Fc1ccc2[nH]ccc2c1-c1nc(N2CCOCC2)c2oc3ncc(CN4CCC5(CC4)COC5)cc3c2n1 [Example D, 4-(5-Fluoro-1H-indol-4-yl)-6-(morpholin-4-yl)-12-{2-oxa-7-azaspiro[3.5]nonan-7-ylmethyl}-8-oxa-3,5,10-triazatricyclo[7.4.0.0^2,7]trideca-1(13),2(7),3,5,9,11-hexaene] | *** (*** ≥50x < 100x) | *** (*** ≥50x < 100x) |  |
| COC1CN(Cc2cnc3oc4c(N5CCOCC5)nc(-c5c(F)ccc6[nH]ccc56)nc4c3c2)C1 [Example E, 4-(5-Fluoro-1H-indol-4-yl)-12-[(3-methoxyazetidin-1-yl)methyl]-6-(morpholin-4-yl)-8-oxa-3,5,10-triazatricyclo[7.4.0.0^2,7]trideca-1(13),2(7),3,5,9,11-hexaene] | ** (** ≥10x < 50x) | ** (** ≥10x < 50x) | AUC [1, 2]: 2930 ng·h/mL; AUC(0-inf) [1, 2]: 3010 ng·h/mL; AUClast [1, 2]: 2930 ng·h/mL; Cmax [1, 2]: 3620 ng/mL; Tmax [1, 2]: 4.8 min; Vd [1, 2]: 1.29 L/kg; half-life ([1]; IV, 5 mg/kg, male CD1 mouse plasma, free base, 10% DMSO, 15% Cremophor, 75% Saline): 33 min; AUC [1, 3]: 2780 ng·h/mL; AUC(0-inf) [1, 3]: 2830 ng·h/mL; AUC(0-t) [1, 3]: 2780 ng·h/mL; Cmax [1, 3]: 1290 ng/mL; Tmax [1, 3]: 30 min; half-life ([1]; PO, 10 mg/kg, male CD1 mouse plasma, free base, 10% DMSO, 15% Cremophor, 75% Saline): 80.4 min; clearance ([1]; plasma, 5 mg/kg, male CD1 mouse plasma, free base): 28 mL/min/kg; bioavailability ([1]; plasma, oral, 10 mg/kg P.O. and 5 mg/kg I.V., male CD1 mouse, free base, 10% DMSO, 15% Cremophor, 75% Saline, read-out: Oral bioavailability (F)): 47% |
| COC1CN(Cc2cnc3oc4c(N5CCOCC5)nc(-c5cccc6[nH]c(C(F)(F)F)cc56)nc4c3c2)C1 [Example H, 12-[(3-Methoxyazetidin-1-yl)methyl]-6-(morpholin-4-yl)-4-[2-(trifluoromethyl)-1H-indol-4-yl]-8-oxa-3,5,10-triazatricyclo[7.4.0.0^2,7]trideca-1(13),2(7),3,5,9,11-hexaene] | * (* <10x) | * (* <10x) |  |
| c1cc(-c2nc(N3CCOCC3)c3oc4ncc(CN5CCCCC5)cc4c3n2)c2cc[nH]c2c1 [Example I in WO 2011/021038, reference compound] |  |  | clearance ([1]; plasma, 5 mg/kg, 5 mg/kg I.V., male CD1 mouse, mesylate salt, 10% DMSO, 90 & saline): 66 mL/min/kg |
| COC1CN(Cc2cnc3oc4c(N5CCOCC5)nc(-c5cc(F)cc6[nH]ccc56)nc4c3c2)C1 [Example I, 4-(6-Fluoro-1H-indol-4-yl)-12-[(3-methoxyazetidin-1-yl)methyl]-6-(morpholin-4-yl)-8-oxa-3,5,10-triazatricyclo[7.4.0.0^2,7]trideca-1(13),2(7),3,5,9,11-hexaene] | *** (*** ≥50x < 100x) | *** (*** ≥50x < 100x) |  |
| COC1CN(Cc2cnc3sc4c(N5CCOCC5)nc(-c5c(F)ccc6[nH]ccc56)nc4c3c2)C1 [Example K, 4-(5-Fluoro-1H-indol-4-yl)-12-[(3-methoxyazetidin-1-yl)methyl]-6-(morpholin-4-yl)-8-thia-3,5,10-triazatricyclo[7.4.0.0^2,7]trideca-1(13),2(7),3,5,9,11-hexaene] | * (* <10x) | * (* <10x) |  |
| COC1CN(Cc2cnc3oc4c(N5CCOCC5)nc(-c5cc(C(F)(F)F)cc6[nH]ccc56)nc4c3c2)C1 [Example L, 12-[(3-Methoxyazetidin-1-yl)methyl]-6-(morpholin-4-yl)-4-[6-(trifluoromethyl)-1H-indol-4-yl]-8-oxa-3,5,10-triazatricyclo[7.4.0.0^2,7]trideca-1(13),2(7),3,5,9,11-hexaene] | * (* <10x) | * (* <10x) |  |
| COC1CN(Cc2cnc3oc4c(N5CCOCC5)nc(-c5ccc(F)c6[nH]ccc56)nc4c3c2)C1 [Example N, 4-(7-Fluoro-1H-indol-4-yl)-12-[(3-methoxyazetidin-1-yl)methyl]-6-(morpholin-4-yl)-8-oxa-3,5,10-triazatricyclo[7.4.0.0^2,7]trideca-1(13),2(7),3,5,9,11-hexaene] | * (* <10x) | ** (** ≥10x < 50x) |  |
| Fc1ccc2[nH]ccc2c1-c1nc(N2CCOCC2)c2oc3ncc(N4CCOCC4)cc3c2n1 [Example O, 4-(5-Fluoro-1H-indol-4-yl)-6,12-bis(morpholin-4-yl)-8-oxa-3,5,10-triazatricyclo[7.4.0.0^2,7]trideca-1(9),2,4,6,10,12-hexaene] | * (* <10x) | * (* <10x) |  |
| CCN1CCN(Cc2cnc3oc4c(N5CCOCC5)nc(-c5c(F)ccc6[nH]ccc56)nc4c3c2)CC1=O [Example P] | * (* <10x) | ** (** ≥10x < 50x) |  |
| COC1CN(Cc2cnc3oc4c(N5CCOCC5)nc(-c5cccc6[nH]cc(F)c56)nc4c3c2)C1 [Example Q] | ** (** ≥10x < 50x) | ** (** ≥10x < 50x) |  |
